Patent US11059819B2, “Fused hetero-hetero bicyclic compounds and methods of use thereof” (Araxes Pharma LLC, priority 2017, dated 2021)

Molecular target: T1, KRAS G12C 1-169, his-tagged protein, GDP-loaded (Homo sapiens, UniProt P01116, G12C)
T1 construct: KRAS G12C 1-169, his-tagged protein, GDP-loaded
Test: Biochemical assay: covalent modification of KRAS G12C measured by mass spectrometry (RapidFire/TOF or Q-Exactive)
Type: binding
Conditions: compound concentration and incubation time not given
Experimental: Test compounds are prepared as 10 mM stock solutions in DMSO (Fisher cat #BP-231-100). KRAS G12C 1-169, his-tagged protein, GDP-loaded is diluted to 2 μM or 0.5 μM in buffer (20 mM Hepes, 150 mM NaCl, 1 mM MgCl2). Compounds are tested for activity as follows:
Compounds are diluted to 50× final test concentration in DMSO in 96-well storage plates. Compound stock solutions are vortexed before use and observed carefully for any sign of precipitation. Dilutions are as follow: • For 100 μM final compound concentration, compounds are diluted to 5000 μM (5 μL 10 mM compound stock+5 μL DMSO and mixed well by pipetting. • For 30 μM final compound concentration, compounds are diluted to 1500 μM (3 μI, 10 mM compound stock+17 μL DMSO) and mixed well by pipetting. • For 10 μM final compound concentration, compounds are diluted to 500 μM (2 μL 10 mM compound stock+38 μL DMSO) and mixed well by pipetting. 49 μL of the stock protein solution is added to each well of a 96-well PCR plate (Fisher cat #1423027). 1 μl of the diluted 50× compounds are added to appropriate wells in the PCR plate using 12-channel pipettor. Reactions are mixed carefully and thoroughly by pipetting up/down with a 200 μL multi-channel pipettor. […] The plate is then resealed with aluminum seal and stored on dry ice until analyzed as described below.
The above described assays are analyzed by mass spectrometry according to one of the following two procedures: […]
After another 30 minute equilibration time, a blank batch (i.e., buffer) is run to ensure equipment is operating properly. […] The method is then run and masses of each individual well recorded. […]
The masses and peak intensities of KRAS G12C protein species are measured using a Dionex RSLCnano system (Thermo Scientific) connected to a Q Exactive Plus mass spectrometer (Thermo Scientific). […]
The mass spectrometer is operated in profile mode at a resolution of 17500, 5 microscans, using 50 msec max injection time and an AGC target of 1×10^6, and a full mass range from 800-1850 m/z is recorded. […]

T1 sequence (P01116 1-169 isoform P01116-2 G12C): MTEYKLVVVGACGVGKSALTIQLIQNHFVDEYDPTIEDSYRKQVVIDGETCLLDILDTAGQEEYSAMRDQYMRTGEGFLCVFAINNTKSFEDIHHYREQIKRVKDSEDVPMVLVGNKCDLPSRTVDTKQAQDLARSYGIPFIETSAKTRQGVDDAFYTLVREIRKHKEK

SMILES	Binding %
C=CC(=O)N1CC(n2cc(C)c3cncc(Nc4c(C)ccc5[nH]ncc45)c3c2=O)C1 [Compound 57, 2-(1-acryloylazetidin-3-yl)-4-methyl-8-((5-methyl-1H-indazol-4-yl)amino)-2,6-naphthyridin-1(2H)-one]	+ (+ indicates binding activity up to 5%)
C=CC(=O)N1CC(n2cnc3c(Nc4cc(O)cc5ccccc45)cncc3c2=O)C1 [Compound 56, 3-(1-acryloylazetidin-3-yl)-8-((3-hydroxynaphthalen-1-yl)amino)pyrido[4,3-d]pyrimidin-4(3H)-one]	+ (+ indicates binding activity up to 5%)
C=CC(=O)N1CC(n2cnc3c(Nc4c(C)ccc5cn[nH]c45)cncc3c2=O)C1 [Compound 55, 3-(1-acryloylazetidin-3-yl)-8-((6-methyl-1H-indazol-7-yl)amino)pyrido[4,3-d]pyrimidin-4(3H)-one]	+ (+ indicates binding activity up to 5%)
